We go through 4 compounds from patent US11850238B2, “Use of a thienopyridone derivative in the treatment of adrenoleukodystrophy or adrenomyeloneuropathy” (POXEL, priority 2020, dated 2023).

Read-outs that look alike come from different tables or passages of the source.

In experiment [1] the test system is AMN human patient-derived primary fibroblasts. The experiment in a line: Hexacosanoic acid (VLCFA) level in AMN patient-derived fibroblasts, LC-MS. Format: cell-based. The following applies: AMN patient-derived fibroblasts. How it is done:
In order to compare the efficacy of PXL770 and metformin to lower very long chain fatty acids (VLCFA) in vitro, the study focuses on the level assessment of the hexacosanoic acid, which is the most prevalent VLCFA, in healthy control cells and in AMN human patient-derived primary fibroblasts. The cell lines were obtained from Coriell Cell Repositories. Fibroblasts were cultured in DMEM with 15% FBS. The cultures were split in 1:5 ratio. Fibroblasts from healthy patients were used as control. All treatments were in complete media containing fetal bovine serum (FBS, 15%). All cultured cells were maintained at 37° C. in 5% CO2.
VLCFA content was then measured as follows. Samples are adjusted to a final volume of 0.5-1 ml with LC-MS grade water and spiked with 10 ng of Lignoceric acid-d4 as an internal standard. The sample is acidified to pH 3-4 with dilute hydrochloric acid and extracted with isooctane-ethyl acetate (9:1) three times with equal volume. The extract is dried under nitrogen and the residue is reconstituted in methanol-water-ammonium acetate (75:25:10 mM).
Total fatty acids: After preparing the samples with internal standard as described above for free fatty acids, aqueous sodium hydroxide is added to a final concentration of 1 M. The mixture is incubated at 37° C. in dark under nitrogen for 3 h. The samples are then acidified, extracted, and reconstituted as described above.
LC-MS analysis of fatty acids: The reconstituted fatty acid extracts are subjected to HPLC on Targa C8 column (2×10 mm) using methanol-aqueous ammonium acetate (10 mM) solvent mixture. The column is eluted with a gradient of methanol (75 to 90%) over 8 min at a flow rate of 0.25 ml/min. The column eluent is directly introduced to mass analyzer (QTRAP5500) and monitored for fatty acids using published pseudo MRM method. Under these conditions, the VLCFA elute between 5 and 8 min. Each fatty acid is quantitated against the added internal standard.
The study planned different groups of patients. First, the evolution of hexacosanoic acid in fibroblasts is monitored in healthy control cells and in AMN human patient-derived primary fibroblasts; and in a second time a treatment of PXL770 was assigned to AMN human-derived primary fibroblasts in culture at different doses (PXL770: 0.1, 0.5, 1, 2, 3.5 and 5 μM; metformin: 100, 200, 300 and 400 μM) for one week and the level of hexacosanoic acid was measured.
The experiment described in Example 3 was reproduced with various thienopyridone compounds, namely: • PXL770: potassium 2-chloro-3-(5-hydroxytetralin-6-yl)-6-oxo-5-phenyl-7H-thieno[2,3-b]pyridin-4-olate • PXL700: 2-chloro-4-hydroxy-3-indan-5-yl-5-(3-pyridyl)-7H-thieno[2,3-b]pyridin-6-one • PXL702: 2-chloro-4-hydroxy-3-(4-hydroxyindan-5-yl)-5-phenyl-7H-thieno[2,3-b]pyridin-6-one • PXL695: 2-chloro-5-(3-fluorophenyl)-4-hydroxy-3-(4-hydroxyindan-5-yl)-7H-thieno[2,3-b]pyridin-6-one, • each tested at concentrations from 0.1 to 5 μM.
A one-way ANOVA with Dunnett's multiple comparison test was performed to assess the effect of PXL770 on brain's VLCFAs (**** p<0.0001, *** p<0.001). A Kruskal-Wallis test with Dunn's multiple comparison test was performed to assess the effect of PXL770 on plasma's VLCFAs (**** p<0.0001, […]).

Experiment [2] deals with AMN human patient-derived primary lymphocytes. The following applies: AMN patient's derived lymphocytes, 5 mM, 7 days of treatment; FIG. 9; cited from earlier work.
In experiment [3] the test system is ABCD2. The following applies: ALD patient's derived fibroblasts, 5 mM; FIG. 11; cited from earlier work.
Experiment [4] concerns ABCD2. The following applies: AMN patient's derived fibroblasts, 5 mM; FIG. 11; cited from earlier work.
Experiment [5] relates to ALD patient-derived lymphocytes. The following applies: ALD patient's derived lymphocytes, 5 mM, 7 days of treatment; FIG. 9; cited from earlier work.
For a further experiment, the system named is cultured fibroblasts. The following applies: cited from earlier work.
Experiment [6] concerns ABCD2. The following applies: ABCD1-KO mice glial cells, 100 μM; FIG. 12; cited from earlier work.
Setting [7] is: concentrations from 0.1 to 5 μM, FIG. 14.

Turning to `O=c1[nH]c2sc(Cl)c(-c3ccc4c(c3O)CCC4)c2c(O)c1-c1cccc(F)c1` [PXL695, 2-chloro-5-(3-fluorophenyl)-4-hydroxy-3-(4-hydroxyindan-5-yl)-7H-thieno[2,3-b]pyridin-6-one], in experiment [1] (setting [7]), the VLCFA levels result is “comparable decrease”.

Consider `O=c1[nH]c2sc(Cl)c(-c3ccc4c(c3)CCC4)c2c(O)c1-c1cccnc1` [PXL700, 2-chloro-4-hydroxy-3-indan-5-yl-5-(3-pyridyl)-7H-thieno[2,3-b]pyridin-6-one, reference compound], for which the VLCFA levels result in experiment [1] (setting [7]) is listed as “no or a very limited effect”.

Regarding `O=c1[nH]c2sc(Cl)c(-c3ccc4c(c3O)CCC4)c2c(O)c1-c1ccccc1` [PXL702, 2-chloro-4-hydroxy-3-(4-hydroxyindan-5-yl)-5-phenyl-7H-thieno[2,3-b]pyridin-6-one], the VLCFA levels result in experiment [1] (setting [7]) is “comparable decrease”.

`CN(C)C(=N)N=C(N)N` [metformin]: the “decrease of VLCFA content” value in experiment [2] is recorded as −29%; in experiment [5], −42%. The VLCFA levels entry in experiment [1] (400 μM, compared with thienopyridones at 5 μM, FIG. 15) is recorded as “no or a very limited effect”. The ABCD2 protein expression entry in the experiment with ABCD2 [3] and with ABCD2 [4] was “only slightly increased” in each case. Besides, the “dose at which efficacy is observed” value in the experiment on cultured fibroblasts is recorded as “at least 100 μM”. Further, the ABCD2 protein levels entry in the experiment with ABCD2 [6] was “limited increase”.
